{"source": "paper PMC2010749", "about": "“Cytotoxic and clastogenic effects of soluble and insoluble compounds containing hexavalent and trivalent chromium” (British Journal of Cancer, 1981)", "key": {"[1]": {"tested_on": "BHK 21 Syrian hamster fibroblast line", "experiment": "Cell growth of BHK cultures (DNA + RNA content), Cr compounds added directly to medium", "type": "cell-based", "settings": "48 h in MEM; 0.5/0.15/0.05 mg/ml (one value for all three)", "method": "(§1) Cell growth and labelling.-The reduction in cell growth, based on the nucleic acid content (DNA + RNA) of treated cultures, and the inhibition of DNA, RNA and protein syn- thesis, based on the incorporation of labelled precursors, were determined, to evaluate the cytotoxic effects of Cr compounds in BHK cell cultures. […] Three to four thousand cells were then examined for each dose level and each time interval, and the mitotic index (the ratio of all mitoses to the total number of cells) and the frequencies of each mitotic phase (the ratios of cells in each phase to total mitoses) were determined. […] Chromium compounds and cell treatments.- The tested compounds of Cr(VI) and Cr(III) and their physico-chemical properties are listed in Table I. In many experiments in which most of them were highly insoluble or only partially soluble (see Tables I, IV, V), Cr compounds were directly suspended in the growth medium used for treatments. In the experiments on the induction of chromosome aberrations and SCE in CHO cells, almost complete solubilization was obtained in N HCI for Cr(III) compounds and 0-5N NaOH for Cr(VI) compounds, after which they were diluted with MEM to the final concentrations specified in Table IX. […] The cytotoxic and clastogenic effects were usually deter- mined just at the end of Cr treatments, but sometimes the treated cells were washed with HBSS and incubated with normal growth medium, so that the effects of Cr were deter- mined at different times after the end of treatment (see Fig. 3 and Table VII)."}, "[2]": {"tested_on": "BHK 21 Syrian hamster fibroblast line", "experiment": "DNA, RNA and protein syntheses in BHK cells, Cr compounds added directly to medium", "type": "cell-based", "settings": "48 h in MEM; 0.5/0.15/0.05 mg/ml (one value for all three)", "method": "(§2) Cell growth and labelling.-The reduction in cell growth, based on the nucleic acid content (DNA + RNA) of treated cultures, and the inhibition of DNA, RNA and protein syn- thesis, based on the incorporation of labelled precursors, were determined, to evaluate the cytotoxic effects of Cr compounds in BHK cell cultures. […] Three to four thousand cells were then examined for each dose level and each time interval, and the mitotic index (the ratio of all mitoses to the total number of cells) and the frequencies of each mitotic phase (the ratios of cells in each phase to total mitoses) were determined. […] Chromium compounds and cell treatments.- The tested compounds of Cr(VI) and Cr(III) and their physico-chemical properties are listed in Table I. In many experiments in which most of them were highly insoluble or only partially soluble (see Tables I, IV, V), Cr compounds were directly suspended in the growth medium used for treatments. […] The cytotoxic and clastogenic effects were usually deter- mined just at the end of Cr treatments, but sometimes the treated cells were washed with HBSS and incubated with normal growth medium, so that the effects of Cr were deter- mined at different times after the end of treatment (see Fig. 3 and Table VII)."}, "[3]": {"tested_on": "BHK 21 Syrian hamster fibroblast line", "experiment": "DNA, RNA and protein syntheses in BHK monolayers exposed to filtered medium preincubated with Cr compounds;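 note: DNA, RNA and protein synthesis in BHK cultures assessed by incorporation of labelled precursors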", "type": "cell-based", "settings": "cells exposed 24 h", "method": "as §2"}, "[4]": {"tested_on": "CHO Chinese hamster fibroblast line", "experiment": "Cell growth of CHO cultures (DNA + RNA content)", "type": "cell-based", "settings": "32 h in MEM; 0.3 µg/ml", "method": "as §2"}, "[5]": {"tested_on": "BHK 21 Syrian hamster fibroblast line", "settings": "range in 4 experiments", "method": "as §2"}, "[6]": {"tested_on": "HEp-2 human epithelial-like line", "settings": "2 h exposure to medium preincubated 2 days with 0.5 mg/ml in presence of BHK cells", "method": "as §2"}, "[7]": {"tested_on": "CHO Chinese hamster fibroblast line", "settings": "0.1 µg/ml water-soluble Cr(VI) (0.3 µg/ml of salt)", "method": "Cell growth and labelling.-The reduction in cell growth, based on the nucleic acid content (DNA + RNA) of treated cultures, and the inhibition of DNA, RNA and protein syn- thesis, based on the incorporation of labelled precursors, were determined, to evaluate the cytotoxic effects of Cr compounds in BHK cell cultures. […] Three to four thousand cells were then examined for each dose level and each time interval, and the mitotic index (the ratio of all mitoses to the total number of cells) and the frequencies of each mitotic phase (the ratios of cells in each phase to total mitoses) were determined. […] Chromium compounds and cell treatments.- The tested compounds of Cr(VI) and Cr(III) and their physico-chemical properties are listed in Table I. In many experiments in which most of them were highly insoluble or only partially soluble (see Tables I, IV, V), Cr compounds were directly suspended in the growth medium used for treatments. In the experiments on the induction of chromosome aberrations and SCE in CHO cells, almost complete solubilization was obtained in N HCI for Cr(III) compounds and 0-5N NaOH for Cr(VI) compounds, after which they were diluted with MEM to the final concentrations specified in Table IX. […]"}, "[8]": {"experiment": "Solubility of chromium compounds (Table I)", "method": "as §1"}, "[9]": {"settings": "preincubated 48 h with 0.05 mg/ml"}, "[10]": {"settings": "preincubated 48 h with 0.15 mg/ml"}, "[11]": {"settings": "preincubated 48 h with 0.5 mg/ml"}}, "note": "Like-named read-outs stand apart in the source and are kept apart here.", "data": [{"compound": "[K+].[K+].[O]=[Cr](=[O])([O-])[O][Cr](=[O])(=[O])[O-]", "note": "[Potassium dichromate]", "values": [{"measurement": "Cell growth", "setting": "[1]", "value": "0 % of controls"}, {"measurement": "DNA synthesis", "setting": "[2]", "value": "0 % of controls"}, {"measurement": "Protein synthesis", "setting": "[2]", "value": "0 % of controls"}, {"measurement": "RNA synthesis", "setting": "[2]", "value": "0 % of controls"}, {"measurement": "DNA synthesis, preinc. in MEM", "setting": "[3]; [9]", "value": "24 % of controls"}, {"measurement": "DNA synthesis, preinc. in MEM+BHK", "setting": "[3]; [9]", "value": "35 % of controls"}, {"measurement": "Protein synthesis, preinc. in MEM", "setting": "[3]; [9]", "value": "100 % of controls"}, {"measurement": "Protein synthesis, preinc. in MEM+BHK", "setting": "[3]; [9]", "value": "100 % of controls"}, {"measurement": "RNA synthesis, preinc. in MEM", "setting": "[3]; [9]", "value": "90 % of controls"}, {"measurement": "RNA synthesis, preinc. in MEM+BHK", "setting": "[3]; [9]", "value": "100 % of controls"}, {"measurement": "DNA synthesis, preinc. in MEM", "setting": "[3]; [10]", "value": "4 % of controls"}, {"measurement": "DNA synthesis, preinc. in MEM+BHK", "setting": "[3]; [10]", "value": "16 % of controls"}, {"measurement": "Protein synthesis, preinc. in MEM", "setting": "[3]; [10]", "value": "68 % of controls"}, {"measurement": "Protein synthesis, preinc. in MEM+BHK", "setting": "[3]; [10]", "value": "100 % of controls"}, {"measurement": "RNA synthesis, preinc. in MEM", "setting": "[3]; [10]", "value": "42 % of controls"}, {"measurement": "RNA synthesis, preinc. in MEM+BHK", "setting": "[3]; [10]", "value": "64 % of controls"}, {"measurement": "DNA synthesis, preinc. in MEM", "setting": "[3]; [11]", "value": "4 % of controls"}, {"measurement": "DNA synthesis, preinc. in MEM+BHK", "setting": "[3]; [11]", "value": "7 % of controls"}, {"measurement": "Protein synthesis, preinc. in MEM", "setting": "[3]; [11]", "value": "52 % of controls"}, {"measurement": "Protein synthesis, preinc. in MEM+BHK", "setting": "[3]; [11]", "value": "69 % of controls"}, {"measurement": "RNA synthesis, preinc. in MEM", "setting": "[3]; [11]", "value": "39 % of controls"}, {"measurement": "RNA synthesis, preinc. in MEM+BHK", "setting": "[3]; [11]", "value": "49 % of controls"}, {"measurement": "Cell growth", "setting": "[4]", "value": 83, "unit": "% control"}, {"measurement": "Length of treatment giving 50% inhibition of RNA synthesis", "setting": "[5]; K2Cr2O7 10 µg/ml in HBSS", "value": "1 to 2", "unit": "h"}, {"measurement": "Length of treatment giving 50% inhibition of protein synthesis", "setting": "[5]; K2Cr2O7 10 µg/ml in HBSS", "value": "3 to 5", "unit": "h"}, {"measurement": "Length of treatment giving > 90% inhibition of DNA synthesis", "setting": "[5]; K2Cr2O7 10 µg/ml in HBSS", "value": "2 to 3", "unit": "h"}, {"measurement": "Length of treatment giving > 90% inhibition of RNA synthesis", "setting": "[5]; K2Cr2O7 10 µg/ml in HBSS", "value": "6 to 7", "unit": "h"}, {"measurement": "Length of treatment giving > 90% inhibition of protein synthesis", "setting": "[5]; K2Cr2O7 10 µg/ml in HBSS", "value": "8 to 10", "unit": "h"}, {"measurement": "Length of treatment giving 50% inhibition of DNA synthesis", "setting": "[5]; K2Cr2O7 10 µg/ml in MEM", "value": "0.5 to 1.0", "unit": "h"}, {"measurement": "Length of treatment giving 50% inhibition of RNA synthesis", "setting": "[5]; K2Cr2O7 10 µg/ml in MEM", "value": "2 to 4", "unit": "h"}, {"measurement": "Length of treatment giving 50% inhibition of protein synthesis", "setting": "[5]; K2Cr2O7 10 µg/ml in MEM", "value": "5 to 9", "unit": "h"}, {"measurement": "Length of treatment giving > 90% inhibition of DNA synthesis", "setting": "[5]; K2Cr2O7 10 µg/ml in MEM", "value": "2 to 3", "unit": "h"}, {"measurement": "Length of treatment giving > 90% inhibition of RNA synthesis", "setting": "[5]; K2Cr2O7 10 µg/ml in MEM", "value": "> 10", "unit": "h"}, {"measurement": "Length of treatment giving > 90% inhibition of protein synthesis", "setting": "[5]; K2Cr2O7 10 µg/ml in MEM", "value": "> 10", "unit": "h"}, {"measurement": "Length of treatment giving 50% inhibition of DNA synthesis", "setting": "[5]; K2Cr2O7 100 µg/ml in MEM", "value": "0 to 25", "unit": "h"}, {"measurement": "Length of treatment giving 50% inhibition of protein synthesis", "setting": "[5]; K2Cr2O7 100 µg/ml in MEM", "value": "1 to 3", "unit": "h"}, {"measurement": "Length of treatment giving > 90% inhibition of DNA synthesis", "setting": "[5]; K2Cr2O7 100 µg/ml in MEM", "value": "0 to 75", "unit": "h"}, {"measurement": "Length of treatment giving > 90% inhibition of RNA synthesis", "setting": "[5]; K2Cr2O7 100 µg/ml in MEM", "value": "5 to 7", "unit": "h"}, {"measurement": "Length of treatment giving > 90% inhibition of protein synthesis", "setting": "[5]; K2Cr2O7 100 µg/ml in MEM", "value": "6 to 10", "unit": "h"}, {"measurement": "Mitotic block (% increase of abnormal metaphases 2-4 h after treatment)", "setting": "[6]", "value": "+++ (+ + + (> 100%))"}, {"measurement": "Mitotic inhibition, early (% reduction of normal prophases at the end of treatment)", "setting": "[6]", "value": "+++ (+ + + (> 70%))"}, {"measurement": "Mitotic inhibition, late (% reduction of normal prophases 24 h after treatment)", "setting": "[6]", "value": "+++ (+ + + (> 70%))"}, {"measurement": "Caryological alterations", "setting": "[6]; grades not defined", "value": "~+"}, {"measurement": "Mean number of chromosome aberrations relative to control", "setting": "[7]", "value": "2-3 times the control values"}, {"measurement": "Solubility in water", "setting": "[8]", "value": "High"}]}]}
